The target in this assay is T1, 3-phosphoinositide-dependent protein kinase 1 (Homo sapiens, UniProt O15530).
T1 sequence (O15530 whole entry): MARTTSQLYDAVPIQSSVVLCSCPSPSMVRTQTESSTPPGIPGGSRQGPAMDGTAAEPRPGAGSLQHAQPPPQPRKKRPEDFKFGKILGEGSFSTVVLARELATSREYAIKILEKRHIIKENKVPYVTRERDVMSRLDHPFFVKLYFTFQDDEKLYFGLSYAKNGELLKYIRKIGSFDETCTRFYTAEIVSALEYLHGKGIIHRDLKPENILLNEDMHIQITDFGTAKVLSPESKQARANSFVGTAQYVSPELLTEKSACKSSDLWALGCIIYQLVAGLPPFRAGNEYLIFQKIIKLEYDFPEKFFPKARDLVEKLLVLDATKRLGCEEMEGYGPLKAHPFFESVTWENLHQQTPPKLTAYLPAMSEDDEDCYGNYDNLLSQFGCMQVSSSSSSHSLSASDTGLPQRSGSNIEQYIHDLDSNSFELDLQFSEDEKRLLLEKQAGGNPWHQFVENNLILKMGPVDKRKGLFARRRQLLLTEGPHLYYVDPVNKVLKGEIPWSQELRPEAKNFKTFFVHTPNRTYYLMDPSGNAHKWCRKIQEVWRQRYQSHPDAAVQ
Briefly: Kinase Assay. How it is done:
The activity of the compounds according to the invention on the kinase PDK1 which inhibits the signal transduction pathway is determined in an in vitro kinase assay with recombinantly prepared protein.

We go through one molecule from BindingDB's records for patent US8575203 (Boehringer Ingelheim International, 2013).

Turning to `CN(C)C(=O)c1cnc2ccc(C#CCNC(=O)c3cncn(Cc4ccc(F)c(F)c4)c3=O)cc2n1` [US8575203, II-70], the IC50 (usually the concentration that gives 50% inhibition) was 185 nM.
